According to article PMC5730985 (Analytical biochemistry, 2017):
Where two headings read alike, the source gives them in different places.

System: PLR3
Assay: light-based bioluminescence assay
Type: biochemical, Photinus pyralis
Settings: pH 7.4

Row | Structure (SMILES) | Km (read-out: Km (μM) / LH2, co-substrate Mg-ATP, O2) | Km (read-out: Km (μM) / Mg-ATP, co-substrate LH2, O2, Mg complex)
1 | O=C(O)[C@H]1CSC(c2nc3ccc(O)cc3s2)=N1 [LH2] | 17 ± 3 µM | 
2 | Nc1ncnc2c1ncn2[C@@H]1O[C@H](COP(=O)(O)OP(=O)(O)OP(=O)(O)O)[C@@H](O)[C@H]1O [Mg-ATP] |  | 12 ± 2 µM
